Legend:
Format in all cases: physicochemical
[1] = Kinematic viscosity at 25° C. (ASTM D7042)
Procedure: (§1) The following properties of the solvents were tested: • Kinematic viscosity at 25° C. […] The funnel containing the mixture was inverted several times. The water and solvent phases were allowed to separate for 24 hours, resulting in two distinct phases. For water solubility in solvent, the solvent layer was transferred to a sample vial and was tested for water content according to ASTM E1064. For solvent solubility in water, the water layer was transferred to a sample vial and was tested by a gas chromatography test method for solvent content. Water content, water solubility, and solvent solubility in water were not tested for solvents C2-C5.

[2] = Water content of the solvents, Karl Fischer titration (ASTM E1064)
Procedure: as §1

[3] = Water solubility in solvent; conditions: 20 g solvent mixed with 20 g water, phases separated 24 hours, solvent layer tested
Procedure: as §1

[4] = Solvent solubility in water; conditions: 20 g solvent mixed with 20 g water, phases separated 24 hours, water layer tested by gas chromatography
Procedure: as §1

[5] = Solvency test, active ingredient trifluralin; conditions: wt % active ingredient in solution; highest concentration with no crystals at room temperature
Procedure: (§2) Solvency of solvents E1-E5 and C1-C8 was tested by dissolving various solid active ingredients in each solvent. The following pesticides were tested as active ingredients: trifluralin, fluroxypyr, bromoxynil octanoate, and 2-methyl-4-chlorophenoxyacetic acid (MCPA). Solvency was characterized by the weight ratio of an active ingredient in a solvent and was determined by adding 0.5 gram of active ingredient to a vial equipped with a stir bar and then charging the solvent to achieve a desired concentration. The vials were capped and placed into a water bath kept at a temperature 5 to 10° C. below the melting point of tested pesticide. The mixture was stirred in the vial for 24 hours. If the active ingredient was fully dissolved, the mixture was transferred to a room temperature water bath. If no active ingredient crystals were formed, a higher concentration of active ingredient was tested. Conversely, if active ingredient crystals were formed, a lower concentration of active ingredient was tested. Solubility was recorded as the highest concentration of active ingredient in the tested solvent with no formation of crystals. Concentrations were tested at a 5% interval. For example, if the active ingredient was dissolved at 50%, 55% would be the next concentration to be tested. Concentrations below 15 wt % were not tested.

[6] = Solvency test, active ingredient fluroxypyr; conditions: wt % active ingredient in solution; highest concentration with no crystals at room temperature
Procedure: as §2

[7] = Solvency test, active ingredient bromoxynil octanoate; conditions: wt % active ingredient in solution; highest concentration with no crystals at room temperature
Procedure: as §2

[8] = Solvency test, active ingredient MCPA; conditions: wt % active ingredient in solution; concentrations below 15 wt % not tested
Procedure: as §2

[9] = Density at 25° C. (ASTM D4052)
[10] = Pour point (ASTM D5950)
Procedure: as §1

[11] = Hydrolytic stability in pH 4.5 or pH 8.5 buffer; conditions: 54° C., 14 days, 13C NMR; for Hydrolysis at pH 4.5: pH 4.5 buffer; for Hydrolysis at pH 8.5: pH 8.5 buffer
Procedure: Hydrolytic stability was characterized by mixing the tested solvent with an excess of pH 4.5 or pH 8.5 buffer in a vial which was placed in a heated water bath (54° C.). After 14 days, the vial was cooled to room temperature and the content was allowed to separate into aqueous and organic (solvent) phases. The solvent phase was transferred to a clean vial and sodium sulfate was added to remove residual water. The mixture was filtered to obtain the solvent filtrate which was analyzed by ^13C NMR to measure the amount of hydrolysis products (acid or alcohol), if any.
Hydrolytic stability for solvents E3, C1, C2, and C6-C8 was not tested. No hydrolysis is expected for aromatic solvent C2 due to lack of hydrolysable bonds.

Compound	KV25 [1]	Water content [2]	Water solubility in solvent [3]	Solvent solubility in water [4]	Solvency, Trifluralin [5]	Solvency, Fluroxypyr [6]	Solvency, Bromoxynil Octanoate [7]	Solvency, MCPA [8]	Density at 25° C. [9]	Pour Point [10]	Hydrolysis at pH 4.5 [11]	Hydrolysis at pH 8.5 [11]
CCC(C)OC(=O)c1ccc(C(=O)OC(C)CC)o1 (centres unmarked) [Solvent C1, Di-sec butyl furan-2,5-dicarboxylate, reference compound]	66.27 cSt	269 ppm w/w	0.699 vol %	0.003 wt %	37.1 wt %	<15 wt %	48.3 wt %	<15 wt %	1.047 g/mL			
CCCCOC(=O)c1ccccc1 [Solvent C3, Butyl benzoate, reference compound]	3.11 cSt				62.8 wt %		69.7 wt %	<15 wt %	1.001 g/mL	−36 °C	0.5%	6.7%
CC(=O)OCc1ccccc1 [Solvent C4, Benzyl acetate, reference compound]	2.20 cSt				61.2 wt %	59.8 wt %	72.9 wt %	15.1 wt %	1.051 g/mL	−90 °C	22.5%	6.8%
CCCCCCCCCC(=O)N(C)C [Solvent C5, linear N,N-dimethyldecanamide, reference compound]	5.33 cSt				62.4 wt %	62.2 wt %	60.2 wt %	<15 wt %	0.876 g/mL	−6 °C	<1.0%	<1.0%
CC(C)CCCCCCCOC(=O)c1ccccc1 [Solvent C6, isodecyl benzoate]	9.60 cSt	332 ppm w/w	0.173 vol %	<0.001 wt %	54.5 wt %		62.1 wt %	<15 wt %	0.949 g/mL	−69 °C		
CC(=O)OCCCCCC(C)C [Solvent C7, isooctyl acetate]	1.69 cSt	699 ppm w/w	0.448 vol %	0.005 wt %	77.3 wt %	60.2 wt %	70.9 wt %	<15 wt %	0.868 g/mL	−105 °C	12.6%	<1.0%
CC(=O)OCCCCCCC(C)C [Solvent C8, isononyl acetate]	2.15 cSt	722 ppm w/w	0.369 vol %	<0.001 wt %	72.9 wt %	<15 wt %	67.5 wt %	<15 wt %	0.867 g/mL	−102 °C		
CCC(C)OC(=O)c1ccccc1 (centres unmarked) [Solvent E1, Secondary butyl benzoate]	3.38 cSt	499 ppm w/w	0.386 vol %	0.008 wt %	72.6 wt %	61.3 wt %	73.0 wt %	<15 wt %	0.992 g/mL	−81 °C	<1.0%	3.7%
O=C(OC1CCCCC1)c1ccccc1 [Solvent E2, Cyclohexyl benzoate]	11.96 cSt	102 ppm w/w	0.394 vol %	0.007 wt %	66.8 wt %	64.8 wt %	68.3 wt %	<15 wt %	1.042 g/mL	−54 °C	2.7%	1.7%
CC(C)CCCCCOC(=O)c1ccccc1 [Solvent E3, Isooctyl benzoate]	6.53 cSt	113 ppm w/w	0.265 vol %	<0.001 wt %	64.1 wt %	50.8 wt %	68.6 wt %	<15 wt %	0.962 g/mL			
CC(C)(C)C(=O)OCc1ccccc1 [Solvent E4, Benzyl pivalate]	3.40 cSt	232 ppm w/w	0.422 vol %	0.010 wt %	69.5 wt %	66.0 wt %	68.8 wt %	<15 wt %	0.966 g/mL	−90 °C	0.3%	<1.0%
CN(C)C(=O)CCCCCC(C)(C)C [Solvent E5, N,N-dimethyl neodecanamide]	7.29 cSt	589 ppm w/w	2.457 vol %	0.141 wt %	65.0 wt %	63.0 wt %	63.5 wt %		0.883 g/mL	−72 °C	<1.0%	<1.0%

— patent publication US20240268381A1, “Agricultural Chemical Formulation” (ExxonMobil Chemical Patents Inc., priority 2021, published 2024)
